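Five concentrations, 48 hours, 96-well plates. At the GI50, growth is halved. Definition used: TGI = concentration required for complete inhibition of growth.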
Legend:
Test in all cases: growth of human tumour cells (NCI), 48 h
SR leukemia = system: SR leukemia
SK-OV-3 ovarian = system: SK-OV-3 ovarian
TK-10 renal = system: TK-10 renal
SW-620 colon = system: SW-620 colon
PC-3 prostate = system: PC-3 prostate
DU-145 prostate = system: DU-145 prostate
SK-MEL-2 melanoma = system: SK-MEL-2 melanoma
MALME-3M melanoma = system: MALME-3M melanoma
T-47D breast = system: T-47D breast
A498 renal = system: A498 renal
SF-539 CNS = system: SF-539 CNS
UACC-257 melanoma = system: UACC-257 melanoma
MDA-MB-435 = system: MDA-MB-435
CAKI-1 renal = system: CAKI-1 renal
HS 578T breast = system: HS 578T breast
UACC-62 melanoma = system: UACC-62 melanoma
SK-MEL-5 melanoma = system: SK-MEL-5 melanoma
OVCAR-8 ovarian = system: OVCAR-8 ovarian
RPMI-8226 leukemia = system: RPMI-8226 leukemia
EKVX NSCLC = system: EKVX NSCLC
NCI-H460 lung = system: NCI-H460 lung
U251 CNS = system: U251 CNS
RXF 393 renal = system: RXF 393 renal
786-0 renal = system: 786-0 renal
ACHN renal = system: ACHN renal
LOX IMVI melanoma = system: LOX IMVI melanoma
HCT-116 colon = system: HCT-116 colon
SNB-75 CNS = system: SNB-75 CNS
NCI-H23 lung = system: NCI-H23 lung
SF-268 CNS = system: SF-268 CNS
HOP-62 NSCLC = system: HOP-62 NSCLC
BT-549 breast = system: BT-549 breast
HOP-92 NSCLC = system: HOP-92 NSCLC
NCI/ADR-RES ovarian = system: NCI/ADR-RES ovarian
MDA-MB-231 breast = system: MDA-MB-231 breast
SF-295 CNS = system: SF-295 CNS
SN12C renal = system: SN12C renal
NCI-H226 lung = system: NCI-H226 lung
K-562 leukemia = system: K-562 leukemia
MOLT-4 leukemia = system: MOLT-4 leukemia
OVCAR-4 ovarian = system: OVCAR-4 ovarian
HL-60(TB) leukemia = system: HL-60(TB) leukemia
CCRF-CEM leukemia = system: CCRF-CEM leukemia
HCC-2998 colon = system: HCC-2998 colon
UO-31 renal = system: UO-31 renal
A549 NSCLC = system: A549 NSCLC
SK-MEL-28 melanoma = system: SK-MEL-28 melanoma
HT29 colon = system: HT29 colon
M14 melanoma = system: M14 melanoma
OVCAR-5 ovarian = system: OVCAR-5 ovarian
OVCAR-3 ovarian = system: OVCAR-3 ovarian
HCT-15 colon = system: HCT-15 colon
IGROV1 ovarian = system: IGROV1 ovarian
COLO 205 colon = system: COLO 205 colon
SNB-19 CNS = system: SNB-19 CNS
NCI-H522 lung = system: NCI-H522 lung
KM12 colon = system: KM12 colon

With N/C(=N\Nc1nc2cc([N+](=O)[O-])ccc2o1)c1ccccn1 the TGI (SR leukemia) was 69.6 nM, the TGI (SK-OV-3 ovarian) was 6380 nM and the TGI (TK-10 renal) was 5510 nM. For the same molecule, the TGI (SW-620 colon) was > 100000 nM, the TGI (PC-3 prostate) was 6140 nM and the TGI (DU-145 prostate) was 1110 nM. It also gave a TGI (SK-MEL-2 melanoma) of 2630 nM, a TGI (MALME-3M melanoma) of 58400 nM and a TGI (T-47D breast) of 796 nM. For the same molecule, the TGI (A498 renal) was 3600 nM, the TGI (SF-539 CNS) was 1000 nM and the TGI (UACC-257 melanoma) was 341 nM. The TGI (MDA-MB-435) was > 100000 nM, the TGI (CAKI-1 renal) was 8440 nM and the TGI (HS 578T breast) was > 100000 nM. For the same molecule, the TGI (UACC-62 melanoma) was 1540 nM, the TGI (SK-MEL-5 melanoma) was 1450 nM and the TGI (OVCAR-8 ovarian) was 10600 nM. It also gave a TGI (RPMI-8226 leukemia) of 4830 nM, a TGI (EKVX NSCLC) of 202 nM and a TGI (NCI-H460 lung) of 1190 nM. The TGI (U251 CNS) was 1230 nM, the TGI (RXF 393 renal) was 497 nM and the TGI (786-0 renal) was 1930 nM. For the same molecule, the TGI (ACHN renal) was 9600 nM, the TGI (LOX IMVI melanoma) was 3680 nM and the TGI (HCT-116 colon) was 222 nM. The TGI (SNB-75 CNS) was 2130 nM, the TGI (NCI-H23 lung) was 4260 nM and the TGI (SF-268 CNS) was 1620 nM. The TGI (HOP-62 NSCLC) was 2800 nM, the TGI (BT-549 breast) was 3680 nM and the TGI (HOP-92 NSCLC) was 5710 nM. The TGI (NCI/ADR-RES ovarian) was 4450 nM, the TGI (MDA-MB-231 breast) was 2130 nM and the TGI (SF-295 CNS) was 14000 nM. The TGI (SN12C renal) was 3850 nM, the TGI (NCI-H226 lung) was 38000 nM and the TGI (K-562 leukemia) was > 100000 nM.
O=C1NC(=O)c2c1c1c3ccccc3ccc1c1[nH]c3ccc(Br)cc3c21 gave a GI50 (MOLT-4 leukemia) of 1190 nM, a TGI (MOLT-4 leukemia) of 4030 nM and a GI50 (TK-10 renal) of 2450 nM. The TGI (TK-10 renal) was > 100000 nM, the GI50 (OVCAR-4 ovarian) was 1740 nM and the TGI (OVCAR-4 ovarian) was 4850 nM. The GI50 (MDA-MB-435) was 1660 nM, the TGI (MDA-MB-435) was 3740 nM and the GI50 (UACC-62 melanoma) was 1910 nM. It also gave a TGI (UACC-62 melanoma) of 3870 nM, a GI50 (SK-MEL-5 melanoma) of 1560 nM and a TGI (SK-MEL-5 melanoma) of 2940 nM. For the same molecule, the GI50 (OVCAR-8 ovarian) was 2330 nM, the TGI (OVCAR-8 ovarian) was > 100000 nM and the GI50 (RPMI-8226 leukemia) was 501 nM. It also gave a TGI (RPMI-8226 leukemia) of 2870 nM, a GI50 (HL-60(TB) leukemia) of 1750 nM and a TGI (HL-60(TB) leukemia) of 6290 nM. It also gave a GI50 (NCI-H23 lung) of 1460 nM, a TGI (NCI-H23 lung) of 4480 nM and a GI50 (CCRF-CEM leukemia) of 1220 nM. The TGI (CCRF-CEM leukemia) was > 100000 nM, the GI50 (NCI/ADR-RES ovarian) was 1530 nM and the TGI (NCI/ADR-RES ovarian) was 5630 nM. The GI50 (K-562 leukemia) was 789 nM and the TGI (K-562 leukemia) was > 100000 nM.
O=C1C2C(C(=O)[N]1[Hg][c]1ccccc1)C1(Cl)C(Cl)=C(Cl)C2(Cl)C1(Cl)Cl (centres undefined) showed a GI50 (SR leukemia) of 410 nM, a TGI (SR leukemia) of 3460 nM and a GI50 (HCC-2998 colon) of 2120 nM. The TGI (HCC-2998 colon) was 4100 nM, the GI50 (SK-OV-3 ovarian) was 1870 nM and the TGI (SK-OV-3 ovarian) was 5170 nM. The GI50 (MOLT-4 leukemia) was 1880 nM, the TGI (MOLT-4 leukemia) was 8760 nM and the GI50 (TK-10 renal) was 1510 nM. The TGI (TK-10 renal) was 2860 nM, the GI50 (OVCAR-4 ovarian) was 1090 nM and the TGI (OVCAR-4 ovarian) was 4150 nM. It also gave a GI50 (SW-620 colon) of 464 nM, a TGI (SW-620 colon) of 1800 nM and a GI50 (PC-3 prostate) of 6420 nM. The TGI (PC-3 prostate) was 23700 nM, the GI50 (DU-145 prostate) was 1660 nM and the TGI (DU-145 prostate) was 3290 nM. The GI50 (UO-31 renal) was 1730 nM, the TGI (UO-31 renal) was 3570 nM and the GI50 (SK-MEL-2 melanoma) was 1490 nM. The TGI (SK-MEL-2 melanoma) was 3150 nM, the GI50 (MALME-3M melanoma) was 1320 nM and the TGI (MALME-3M melanoma) was 3020 nM. The GI50 (T-47D breast) was 225 nM, the TGI (T-47D breast) was 1580 nM and the GI50 (A498 renal) was 2450 nM. The TGI (A498 renal) was 11900 nM, the GI50 (A549 NSCLC) was 9840 nM and the TGI (A549 NSCLC) was 25000 nM. For the same molecule, the GI50 (UACC-257 melanoma) was 1220 nM, the TGI (UACC-257 melanoma) was 2520 nM and the GI50 (SK-MEL-28 melanoma) was 1380 nM. The TGI (SK-MEL-28 melanoma) was 2730 nM, the GI50 (CAKI-1 renal) was 1670 nM and the TGI (CAKI-1 renal) was 4990 nM. The GI50 (HS 578T breast) was 771 nM, the TGI (HS 578T breast) was > 100000 nM and the GI50 (UACC-62 melanoma) was 1370 nM. For the same molecule, the TGI (UACC-62 melanoma) was 2720 nM, the GI50 (SK-MEL-5 melanoma) was 1000 nM and the TGI (SK-MEL-5 melanoma) was 2170 nM. The GI50 (RPMI-8226 leukemia) was 1640 nM, the TGI (RPMI-8226 leukemia) was 5940 nM and the GI50 (EKVX NSCLC) was 6910 nM. For the same molecule, the TGI (EKVX NSCLC) was 25200 nM, the GI50 (NCI-H460 lung) was 2610 nM and the TGI (NCI-H460 lung) was 12400 nM. It also gave a GI50 (U251 CNS) of 1210 nM, a TGI (U251 CNS) of 2490 nM and a GI50 (RXF 393 renal) of 423 nM. It also gave a TGI (RXF 393 renal) of 1590 nM, a GI50 (786-0 renal) of 1850 nM and a TGI (786-0 renal) of 3480 nM. It also gave a GI50 (ACHN renal) of 1690 nM, a TGI (ACHN renal) of 3070 nM and a GI50 (HL-60(TB) leukemia) of 2510 nM. For the same molecule, the TGI (HL-60(TB) leukemia) was 8770 nM, the GI50 (HT29 colon) was 1810 nM and the TGI (HT29 colon) was 4250 nM. For the same molecule, the GI50 (LOX IMVI melanoma) was 1020 nM, the TGI (LOX IMVI melanoma) was 2390 nM and the GI50 (M14 melanoma) was 1160 nM. For the same molecule, the TGI (M14 melanoma) was 2430 nM, the GI50 (HCT-116 colon) was 1540 nM and the TGI (HCT-116 colon) was 2870 nM. For the same molecule, the GI50 (OVCAR-5 ovarian) was 2820 nM, the TGI (OVCAR-5 ovarian) was 5290 nM and the GI50 (SNB-75 CNS) was 1330 nM. For the same molecule, the TGI (SNB-75 CNS) was 2920 nM, the GI50 (NCI-H23 lung) was 1490 nM and the TGI (NCI-H23 lung) was 3320 nM. The GI50 (SF-268 CNS) was 1640 nM, the TGI (SF-268 CNS) was 3710 nM and the GI50 (HOP-62 NSCLC) was 6210 nM. The TGI (HOP-62 NSCLC) was 19200 nM, the GI50 (OVCAR-3 ovarian) was 229 nM and the TGI (OVCAR-3 ovarian) was 467 nM. For the same molecule, the GI50 (HCT-15 colon) was 583 nM, the TGI (HCT-15 colon) was 2200 nM and the GI50 (IGROV1 ovarian) was 1200 nM. It also gave a TGI (IGROV1 ovarian) of 3630 nM, a GI50 (CCRF-CEM leukemia) of 365 nM and a TGI (CCRF-CEM leukemia) of 10400 nM. The GI50 (BT-549 breast) was 1200 nM, the TGI (BT-549 breast) was 2490 nM and the GI50 (HOP-92 NSCLC) was 1870 nM. It also gave a TGI (HOP-92 NSCLC) of 3970 nM, a GI50 (COLO 205 colon) of 809 nM and a TGI (COLO 205 colon) of 2050 nM. The GI50 (NCI/ADR-RES ovarian) was 2690 nM, the TGI (NCI/ADR-RES ovarian) was 8970 nM and the GI50 (SF-295 CNS) was 12400 nM. For the same molecule, the TGI (SF-295 CNS) was 36000 nM, the GI50 (SNB-19 CNS) was 1540 nM and the TGI (SNB-19 CNS) was 2990 nM. The GI50 (NCI-H522 lung) was 203 nM, the TGI (NCI-H522 lung) was 531 nM and the GI50 (KM12 colon) was 8700 nM. The TGI (KM12 colon) was 21500 nM, the GI50 (NCI-H226 lung) was 1590 nM and the TGI (NCI-H226 lung) was 4180 nM. It also gave a GI50 (K-562 leukemia) of 1360 nM and a TGI (K-562 leukemia) of 11400 nM.

Reference: PubChem BioAssay (NCI)
